Numbered stars: 1 amine (or outer) side, 2 acyl side, 3 side chain; on linkers, the order of the positions; unused ones are H or OH. Square brackets hold non-standard residues; d marks the D form. Side chains are listed from the residue outwards. Peptide text beside a SMILES is read from it. * marks the point of attachment. ξ: configuration not given here. Ethylenediamine = C(CN[*:2])N[*:1]; Hyp = O=C(O)[C@@H]1C[C@@H](O)CN1; ξPhg = NC(C(=O)O)c1ccccc1; CO = O=C([*:1])[*:2]; Bn = c1ccc(C*)cc1 A value given as a limit tells only on which side of the number the result lay.

The text below walks through data of patent publication US8450272B2, “Combinations of somatostatin-analogs with different selectivity for human somatostatin receptor subtypes” (priority 2006, dated 2013).

A short description of series [1]: Long-term s.c. infusion by osmotic minipumps, plasma glucose concentration. Conditions: 3 and 10 μg/kg/h alone, rats. Format: in vivo, adult male Lewis rats.
Experimental: Effect of long term application of octreotide and pasireotide alone and in combination on plasma glucose concentration in rats. Compounds were continuously infused by osmotic minipumps at 3 and 10 μg/kg/h for the single compounds and at 1.5, 5 and 10 μg/kg/h for the combinations. Plasma glucose levels were determined one day before and 1, 7 and 14 days after minipumps implantation.
In the long-term experiments octreotide and pasireotide and their combination were s.c. infused in rats using osmotic minipumps (Alzet model: 2002). Blood samples were taken by sublingual bleeding on the day before minipump implantation and after 1, 7 and 14 days.
For series [2] the following is noted: in vivo; cited from earlier work.
Series [3] can be described thus: Short term experiment: acute s.c. injection, blood glucose AUC. It is filed as in vivo, adult male Lewis rats. The note with it: 10 μg/kg s.c., rats, within 1 hour after injection. On the procedure: Effect of an acute s.c. injection of octreotide and pasireotide in rats (1 and 10 μg/kg) and different combinations thereof on the accumulated glucose levels between 0 and 1 hour after the injection (n=6 animals per group).
In the short term experiment octreotide and pasireotide and their combination were s.c. injected in rats in 1 ml saline. Blood samples were taken by sublingual bleeding the rats 15 min, 30 min, 1 h, 3 h, 6 h and 8 h after the injection and blood glucose was determined using ACCU-Chek Compact (Roche), which was newly calibrated before each measurement. In order to determine the overall effect of the treatment on glucose the area under the curve (AUC) was determined using GraphPad Prizm. 4.0.

Series [4] in a line: Previous experiments: glucose increase after pasireotide injection. Conditions: rats. Format: in vivo. How it is done:
Based on previous experiments in rats it was known that acute injection of pasireotide causes an increase in glucose, which was rapid in onset (within 30 min after injection), reached its peak between 1 and 3 h and returned to baseline values after 6-8 h. […] Therefore only moderate increases in glucose have been observed after repeated or long-term treatment with pasireotide mainly on the first day(s) of treatment. […] In order to investigate the efficacy of both compounds and their combination on a relevant parameter in rats plasma GH and IGF-1 levels as well as body weight were determined in rats within 14 days of continuous infusion with the compounds. […] Due to the known pulsatile release pattern of GH and the low sensitivity of the available GH RIA, levels of IGF-1 and body weight (BW) are more reliable parameters to determine efficacy of a compound on the GH/IGF-1 system. GH and IGF-1 are both growth factors which are responsible for growth of animals and humans and lack of these factors result in growth retardation in animals which are still growing (like in rats). […] Unlike the rapid changes in glucose levels, changes in IGF-1 levels are only observed after 1-2 days of treatment with somatostatin analogues.

For the compound `NCCCC[C@@H]1NC(=O)[C@@H](Cc2c[nH]c3ccccc23)NC(=O)C(c2ccccc2)NC(=O)[C@@H]2C[C@@H](OC(=O)NCCN)CN2C(=O)[C@H](Cc2ccccc2)NC(=O)[C@H](Cc2ccc(OCc3ccccc3)cc2)NC1=O` (stereo partly drawn) [pasireotide, cyclo[{4-(NH2—C2H4—NH—CO—O—)Pro}-Phg-DTrp-Lys-Tyr(4-Bzl)-Phe]] (cyclo(F[Hyp]([CO-Ethylenediamine])[ξPhg][dW]KY(Bn))), the “plasma level of glucose” value in series [1] (continuous infusion, day 1 and 7 of treatment) is listed as “slightly, but significantly increased”. Moreover, the t1/2 in series [2] is reported as 11 h. Moreover, the “change of AUC glucose levels vs. control” value in series [3] is recorded as 56%. Moreover, in series [4] (acute injection), the “onset of increase in glucose after injection” value is not above 30 min and the “return of glucose to baseline values” fell in the range of 6 to 8 h. Besides, in series [4] (repeated or long term injections), the “glucose response on repeated or long term injections” value is on record as “strong tachyphylaxis”.
As to `C[C@@H](O)[C@@H]1NC(=O)[C@H](CCCCN)NC(=O)[C@@H](Cc2c[nH]c3ccccc23)NC(=O)[C@H](Cc2ccccc2)NC(=O)[C@@H](NC(=O)[C@H](N)Cc2ccccc2)CSSC[C@@H](C(=O)N[C@H](CO)[C@@H](C)O)NC1=O` [octreotide], the plasma glucose result in series [1] (continuous infusion for 14 days) is “no effect or caused a small but significant reduction”. Further, in series [3], the “change of AUC glucose levels vs. control” value is given as “no effect”.
